Consider twelve compounds from publication PMC9658052, “Virtual Screening and Biological Activity Evaluation of New Potent Inhibitors Targeting Hexokinase-II” (Molecules, 2022).

The subject of assay [1] is HeLa cells. Nature of the assay: MTT cytotoxicity assay, HeLa. The assay is classed as cell-based. The following applies: Homo sapiens, 48 h, read-out: IC50 (toxicity) Hela. As to the method: (§1) Initially, we adopted the MTT assay to screen the cytotoxicity of all compounds toward three different types of cancer cell lines (HeLa, HepG 2 and A549). […] The chemical structures of the selected compounds are depicted in Figure 2.
(§2) HeLa, Hep G2, and A549 cells were purchased from the Shanghai Institute of Biochemistry and Cell Biology, Chinese Academy of Sciences. All cells were cultured in DMEM with 100 units/mL penicillin/streptomycin, 2 mM glutamine, and 10% FBS in a carbon dioxide atmosphere at 37 °C.
(§3) Cytotoxicity was quantified using a standard MTT assay, which is widely used in evaluating cell proliferation and screening for anticancer drugs. Briefly, following 7 × 10^3 cells incubating in 96-well plates for 48 h filled with DMEM medium supplemented with 10% fetal bovine serum (FBS) containing different concentrations of samples, 10 μL/well of MTT (5 mg/mL) was added. After 4 h of incubation at 37 °C, 100 μL of extraction buffer containing 5% iso-butanol, 0.1% HCl, and 10% SDS was added, and then the cells were incubated overnight. As controls, cells were treated with 0.1% (v/v) DMSO alone. The cell viability was calculated by the absorbance (570 nm) of each well obtained using a microplate reader (Thermo Scientific Multiskan GO, Vantaa, Finland).
(Formazan colour is commonly taken as a measure of viable cells.)

Assay [2] deals with HepG 2 cells. Nature of the assay: MTT cytotoxicity assay, HepG 2. The assay is classed as cell-based. As to conditions: Homo sapiens, HepG2, 48 h, read-out: IC50 (toxicity) HepG 2. The procedure: as §1, §2, §3
Assay [3] concerns A549 cells. Nature of the assay: MTT cytotoxicity assay, A549. The class given is cell-based. The following applies: Homo sapiens, 48 h, read-out: IC50 (toxicity) A549. As to the method: as §1, §2, §3
Assay [4] addresses T1, Hexokinase-II enzyme (Homo sapiens, UniProt P52789).
T1 construct: purchased Abcam ab211114
T1 sequence (P52789 1-917): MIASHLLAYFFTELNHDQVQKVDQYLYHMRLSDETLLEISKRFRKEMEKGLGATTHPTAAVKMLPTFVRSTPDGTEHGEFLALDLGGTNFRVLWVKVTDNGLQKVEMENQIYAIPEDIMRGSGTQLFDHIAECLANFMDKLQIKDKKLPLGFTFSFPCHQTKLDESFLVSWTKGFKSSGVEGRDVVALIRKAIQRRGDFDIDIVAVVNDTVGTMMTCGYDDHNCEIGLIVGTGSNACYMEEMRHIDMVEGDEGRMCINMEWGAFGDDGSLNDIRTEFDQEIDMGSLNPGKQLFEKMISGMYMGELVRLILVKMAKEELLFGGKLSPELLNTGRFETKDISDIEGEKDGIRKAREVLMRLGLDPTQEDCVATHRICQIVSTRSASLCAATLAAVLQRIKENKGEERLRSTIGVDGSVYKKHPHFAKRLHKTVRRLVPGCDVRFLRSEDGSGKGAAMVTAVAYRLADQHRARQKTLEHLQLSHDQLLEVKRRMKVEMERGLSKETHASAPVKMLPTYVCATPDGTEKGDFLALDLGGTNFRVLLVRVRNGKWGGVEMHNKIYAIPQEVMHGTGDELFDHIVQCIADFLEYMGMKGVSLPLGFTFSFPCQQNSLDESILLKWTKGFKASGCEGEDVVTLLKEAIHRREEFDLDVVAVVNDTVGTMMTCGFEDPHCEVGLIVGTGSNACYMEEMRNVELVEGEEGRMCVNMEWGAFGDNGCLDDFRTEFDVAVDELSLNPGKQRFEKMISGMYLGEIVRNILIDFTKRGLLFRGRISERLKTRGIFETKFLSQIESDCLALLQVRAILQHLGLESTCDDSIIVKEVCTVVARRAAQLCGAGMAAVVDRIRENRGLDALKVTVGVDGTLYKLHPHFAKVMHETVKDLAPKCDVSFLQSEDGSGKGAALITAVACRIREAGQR
Nature of the assay: Hexokinase-II inhibitor screening kit (enzyme activity). The class given is biochemical. The following applies: compound 1 to 128 μM. As to the method:
Since nine compounds display the highest cytotoxicity to three different cancer cells, we then verified the effects of the compounds on Hexokinase-II activity.
Figure 3 Inhibition of compounds 4244-3659 and K611-0094 on Hexokinase-II activity. […] All data were expressed as mean ± SE from three independent experiments. ** p < 0.01 vs. the control groups.
The Hexokinase-II activity was tested via a Hexokinase-II inhibitor screening kit (Abcam, Cambridge, UK, ab211114), and all experiments were carried out following the manufacturer’s instructions. […] HK assay buffer was treated as negative control, bromopyruvic acid was used for positive controls, and DMSO was used as a solvent control. The value of OD at 450 nm at 15 min and 25 min was recorded. IC50 values were calculated in GraphPad Prism 5.

The subject of assay [5] is HK-II. The following applies: cited from earlier work.
Details of assay [6]: method as in PMID 20215500, PMID 16044218. The following applies: mice, dose range from 500 mg/Kg to 2000 mg/Kg; cited from earlier work.
The mark [7] stands for this setting: 5 min at 25 °C preincubation, read-out: EC50, inhibitory effect on HK-II enzyme activity.
Where [8] appears, read: read-out: IC50 on Hexokinase-II enzyme.

Like-named read-outs stand apart in the source and are kept apart here.

`Cc1ccc(C(C)C)c(OC[C@H](O)CNCc2ccccc2)c1` [AP-124/43383769]: the IC50 in assay [1] is 25.1 ± 0.9 µM; in assay [2], 23.3 µM; in assay [3] it was 36.5 ± 0.4 µM; in assay [4] (setting [7]), 104 ± 1.1 µM.
Take `CC(=O)c1c(C)[nH]c2ccc(OC[C@@H](O)CNCCc3ccccc3)cc12` [D016-0099]: the IC50 in assay [1] was determined as 48.5 ± 1.2 µM; in assay [2], 44.2 ± 0.6 µM; in assay [3] it was 50.4 ± 0.3 µM.
On to “€-4-Nitro-N′-(2,3,4-trihydroxybenzylidene)”, for which, in assay [5] (read-out: enzyme activity (HK2 inhibitor)), the IC50 was 0.53 ± 0.13 µM.
`O=C(CSc1nc2c(sc3ccccc32)c(=O)n1Cc1cccnc1)Nc1ccc(O)c(O)c1` [K263-0793]: the IC50 in assay [1] is 22.4 ± 1.4 µM; in assay [2], 22.1 ± 0.9 µM; in assay [3], 27.1 ± 1.4 µM; in assay [4] (setting [7]), over 128 µM.
Consider `CCOC(=O)c1c(C)n(C)c2ccc(OC[C@H](O)CN[C@H](CC)CO)cc12` [6913-0012], for which the IC50 in assay [1] was determined as 51.9 ± 1.5 µM; in assay [2], 59 ± 0.2 µM; in assay [3], 62.6 ± 0.7 µM.
Regarding `CN(C)C(=N)N=C(N)N` [metformin], in assay [5] (weak inhibitory effect, read-out: IC50 against HK-II), the IC50 is over 10000 µM.
Consider `CN1C(=O)[C@](O)(CC(=O)c2cc(O)ccc2O)c2ccccc21` [4244-3659], for which the IC50 in assay [1] was 62.1 ± 2 µM; in assay [2], 62.5 ± 2.1 µM; in assay [3] it was 54.6 ± 2.6 µM; in assay [4] (setting [7]) it was 17.5 ± 1.4 µM; in assay [4] (setting [8]) it was 17.5 ± 1.4 µM.
On to `O=C(N/N=C/c1ccc(Cl)c(Cl)c1)c1cc(O)c(O)c(O)c1` [AK-968/41922716], for which the IC50 was 28.5 ± 1.9 µM in assay [1], 40 ± 0.2 µM in assay [2] and 31 µM in assay [3].
`O[C@H](CNCc1ccccc1)COc1cccc2ccccc12` [AO-423/13128074]: the IC50 in assay [1] was 27.7 ± 0.6 µM; in assay [2], 30 ± 1.4 µM; in assay [3], 38.6 ± 0.8 µM; in assay [4] (setting [7]) it was over 128 µM.
Turning to `O=CC[C@@H](O)[C@H](O)[C@H](O)CO` [2-Deoxyglucose (2-DG), 2-Deoxyglucose], the “therapeutic effect of a single agent” value in assay [6] is “no significant therapeutic effect”.
Consider `O=C(O)C(=O)CBr` [3-Bromopyruvate (3-BrPA), 3-Bromopyruvate], for which, in assay [5], the “inhibitory action against HK-II” value is on record as “moderate inhibitory action”.
As for `Nc1nc(SCC(=O)Nc2cccc([N+](=O)[O-])c2)sc1C(=O)Nc1nccs1` [K611-0094], the IC50 in assay [1] was 47.8 ± 0.6 µM; in assay [2], 57.9 ± 1.7 µM; in assay [3], 48.8 ± 1.2 µM; in assay [4] (setting [7]), 45 ± 1.1 µM; in assay [4] (setting [8]) it was 45 ± 1.1 µM.
